Reference: ChEMBL document CHEMBL1143436 (Bioorg Med Chem Lett, 2008)
Activity calls are given as the source filed them. The rule behind the calls is not given here.

What was measured:
[1] = target: T1, Neurotensin receptor type 1 (Homo sapiens, UniProt P30989); experiment: Antagonist activity at human NTS1 receptor expressed in CHOK1 cells assessed as inhibition of intracellular calcium elevation pretreated 30 mins before with SR-48692 by FLIPR assay; type: functional, cell-based, CHO-K1
[2] = target: T1, Neurotensin receptor type 1; experiment: Displacement of [3H]neurotensin from human NTS1 receptor expressed in CHOK1 cells after 60 mins by beta plate liquid scintillation counter; type: cell-based, CHO-K1

T1 sequence (P30989 whole entry): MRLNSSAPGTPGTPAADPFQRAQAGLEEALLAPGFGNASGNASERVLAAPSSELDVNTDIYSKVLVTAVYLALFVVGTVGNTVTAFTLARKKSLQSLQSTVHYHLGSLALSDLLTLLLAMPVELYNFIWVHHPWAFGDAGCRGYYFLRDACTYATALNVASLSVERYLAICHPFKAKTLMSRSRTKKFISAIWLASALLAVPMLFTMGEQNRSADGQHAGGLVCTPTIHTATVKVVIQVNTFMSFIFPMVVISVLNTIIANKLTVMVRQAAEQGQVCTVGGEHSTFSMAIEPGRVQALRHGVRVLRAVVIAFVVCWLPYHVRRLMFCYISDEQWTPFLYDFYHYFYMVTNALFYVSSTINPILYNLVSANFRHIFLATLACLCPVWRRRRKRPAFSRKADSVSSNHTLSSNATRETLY

SMILES	IC50 [1]	Ki [2]	Activity ([2]; CHO-K1)
CC(C)C[C@@H](NC(=O)Cn1ccc2cc(NS(=O)(=O)c3cccc4cccnc34)ccc21)C(=O)O	3.76 nM	545 nM	
CC(C)CC(NC(=O)OCC1c2ccccc2-c2ccccc21)C(=O)O (centres undefined)	3.79 nM		inactive
